For assay [1], the target named is T1, RCT (regulatory C-terminus of KEA3, KEA3 AA495-776) (Arabidopsis thaliana, UniProt Q9M0Z3).
T1 sequence (Q9M0Z3 495-776): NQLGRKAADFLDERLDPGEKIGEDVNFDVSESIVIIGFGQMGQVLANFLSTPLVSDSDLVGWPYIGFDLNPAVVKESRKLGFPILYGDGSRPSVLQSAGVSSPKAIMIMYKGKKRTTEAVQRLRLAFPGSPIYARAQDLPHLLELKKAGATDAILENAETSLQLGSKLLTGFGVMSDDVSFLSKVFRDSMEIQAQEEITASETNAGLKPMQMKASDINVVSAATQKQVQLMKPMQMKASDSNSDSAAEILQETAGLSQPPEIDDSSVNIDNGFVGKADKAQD
In words: temperature-related intensity change (TRIC), RED-tris-NTA labelled His-tag, one-site fit. Format: binding. From the text:
temperature-related intensity change (TRIC), RED-tris-NTA labelled His-tag, one-site fit on RCT (regulatory C-terminus of KEA3, KEA3 AA495-776)

The target in assay [2] is T1, RCT (regulatory C-terminus of KEA3, KEA3 AA495-776). Kind of assay: differential scanning fluorimetry (nanoDSF, intrinsic fluorescence). Format: binding. To be noted: pH 8.0, PBS; 50 and 500 µM ligand. On the technique in general: In DSF a fluorescence change marks the thermal transition of the protein.
The target in the next assay is T2, KEA3 (Arabidopsis thaliana, UniProt Q9M0Z3).
T2 construct: native full-length KEA3 in detergent-solubilized wild-type thylakoid membranes, detected with specific KEA3 antibody
T2 sequence (Q9M0Z3 73-776): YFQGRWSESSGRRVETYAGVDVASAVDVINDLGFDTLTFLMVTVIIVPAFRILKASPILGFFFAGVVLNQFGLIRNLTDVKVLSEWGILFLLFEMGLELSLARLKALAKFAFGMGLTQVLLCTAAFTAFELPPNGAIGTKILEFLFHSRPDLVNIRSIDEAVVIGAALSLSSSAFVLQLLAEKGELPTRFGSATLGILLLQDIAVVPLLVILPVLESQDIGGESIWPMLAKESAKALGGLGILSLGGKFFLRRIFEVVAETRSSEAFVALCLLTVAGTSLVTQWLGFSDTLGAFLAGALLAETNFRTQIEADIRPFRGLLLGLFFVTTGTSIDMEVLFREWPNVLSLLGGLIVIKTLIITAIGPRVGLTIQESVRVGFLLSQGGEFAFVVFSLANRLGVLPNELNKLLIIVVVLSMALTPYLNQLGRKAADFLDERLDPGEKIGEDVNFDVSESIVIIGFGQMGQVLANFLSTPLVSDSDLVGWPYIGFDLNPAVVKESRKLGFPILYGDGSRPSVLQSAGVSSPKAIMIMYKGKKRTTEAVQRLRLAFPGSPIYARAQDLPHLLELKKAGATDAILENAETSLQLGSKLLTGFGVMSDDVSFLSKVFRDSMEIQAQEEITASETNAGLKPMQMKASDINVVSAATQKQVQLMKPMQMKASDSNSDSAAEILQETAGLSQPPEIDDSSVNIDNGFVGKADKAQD
Kind of assay: affinity pull-down with ATP-linked agarose beads, immunoblot. Format: biochemical. The settings on record: solubilized thylakoids; ATP immobilised via linker. For orientation: A western blot detects proteins with antibodies after separation by electrophoresis.

The compound `Nc1ncnc2c1ncn2[C@@H]1O[C@H](COP(=O)(O)OP(=O)(O)O)[C@@H](O)[C@H]1O` [ADP] came in with an equilibrium dissociation constant (Kd) in assay [1] of 51 µM. Also, in assay [2], the ΔTM result is listed as “Addition of either ADP or ATP yielded a concentration-dependent increase in the ΔTM of RCT”.
As for `Nc1ncnc2c1ncn2[C@@H]1O[C@H](COP(=O)(O)OP(=O)(O)OP(=O)(O)O)[C@@H](O)[C@H]1O` [ATP], the Kd in assay [1] worked out at 42 µM. Further, the ΔTM result in assay [2] is recorded as “Addition of either ADP or ATP yielded a concentration-dependent increase in the ΔTM of RCT”. Besides, at KEA3, the “affinity pull-down with ATP-linked agarose beads, immunoblot” value is on record as “KEA3 was detected on three of four different types of ATP-linked agarose beads”.
In assay [1], `NC(=O)C1=CN([C@@H]2O[C@H](COP(=O)(O)OP(=O)(O)OC[C@H]3O[C@@H](n4cnc5c(N)ncnc54)[C@H](OP(=O)(O)O)[C@@H]3O)[C@@H](O)[C@H]2O)C=CC1` [NADPH] had a Kd of 38 µM.
The same measure, in the same setting: with `NC(=O)c1ccc[n+]([C@@H]2O[C@H](COP(=O)(O)OP(=O)(O)OC[C@H]3O[C@@H](n4cnc5c(N)ncnc54)[C@H](OP(=O)(O)O)[C@@H]3O)[C@@H](O)[C@H]2O)c1` [NADP^+] the figure was 8 µM.

What is called Kd is the constant that tells how readily two partners part at equilibrium. Lower therefore signals higher affinity.

The values are drawn from PMC10981695, “The thylakoid proton antiporter KEA3 regulates photosynthesis in response to the chloroplast energy status” (Nature Communications, 2024).
